Measured values from ChEMBL document CHEMBL1765060, “Synthesis, characterization, and biological evaluation of novel diclofenac prodrugs” (J Med Chem, 2011).

Legend:
[1] = Metabolic stability in rat liver microsomes assessed as compound remaining after 30 mins by HPLC analysis; type: ADME, Microsome; settings: read-out: Stability
[2] = physchem; settings: octanol/0.2 M phosphate buffer, pH 7.4
[3] = tested on: Rattus norvegicus; assay: Gastrointestinal toxicity in Wistar rat assessed as ulcer index at 100 mg/kg, po; type: organism-based; parameters: dose 100 mg/kg, route oral; settings: in vivo
[4] = Metabolic stability in rat plasma assessed as compound remaining after 60 mins by HPLC analysis; type: ADME, cell-free; settings: read-out: Stability
[5] = physchem; settings: octanol/0.1 M citric acid buffer, pH 3
[6] = buffer, pH 1
[7] = tested on: Rattus norvegicus; assay: Antiinflammatory activity in Wistar rat assessed as inhibition of carrageenan-induced paw edema at 100 mg/kg, po administered 1 hr before carrageenan challenge measured after 180 mins; type: functional; parameters: scale not given: the % may be the effect or the level left
[8] = buffer, pH 9
[9] = buffer, pH 3
[10] = Metabolic stability in rat liver microsomes assessed as compound remaining after 60 mins by HPLC analysis; type: ADME, Microsome; settings: read-out: Stability
[11] = tested on: Rattus norvegicus; assay: Gastrointestinal toxicity in Wistar rat assessed as ulcer area of <1 mm diameter at 100 mg/kg, po; type: organism-based; parameters: dose 100 mg/kg, route oral; settings: in vivo
[12] = buffer, pH 7.4
[13] = Aqueous solubility of the compound in acetate buffer at pH 5.5 by HPLC analysis
[14] = Metabolic stability in rat plasma assessed as compound remaining after 120 mins by HPLC analysis; type: ADME, cell-free; settings: read-out: Stability
[15] = tested on: Rattus norvegicus; assay: Gastrointestinal toxicity in Wistar rat assessed as ulcer area of >3 mm diameter at 100 mg/kg, po; type: organism-based; parameters: dose 100 mg/kg, route oral; settings: in vivo
[16] = tested on: Rattus norvegicus; assay: Gastrointestinal toxicity in Wistar rat assessed as ulcer area of 1-3 mm diameter at 100 mg/kg, po; type: organism-based; parameters: dose 100 mg/kg, route oral; settings: in vivo
[17] = tested on: Rattus norvegicus; assay: Antiinflammatory activity in Wistar rat assessed as inhibition of carrageenan-induced paw edema at 50 mg/kg, po administered 1 hr before carrageenan challenge measured after 180 mins; type: functional; parameters: scale not given: the % may be the effect or the level left
[18] = tested on: Rattus norvegicus; assay: Gastrointestinal toxicity in Wistar rat assessed as ulcer index at 50 mg/kg, po; type: organism-based; parameters: dose 50 mg/kg, route oral; settings: in vivo
[19] = tested on: Rattus norvegicus; assay: Gastrointestinal toxicity in Wistar rat assessed as ulcer area of >3 mm diameter at 50 mg/kg, po; type: organism-based; parameters: dose 50 mg/kg, route oral; settings: in vivo
[20] = tested on: Rattus norvegicus; assay: Gastrointestinal toxicity in Wistar rat assessed as ulcer area of 1-3 mm diameter at 50 mg/kg, po; type: organism-based; parameters: dose 50 mg/kg, route oral; settings: in vivo
[21] = tested on: Rattus norvegicus; assay: Gastrointestinal toxicity in Wistar rat assessed as ulcer area of <1 mm diameter at 50 mg/kg, po; type: organism-based; parameters: dose 50 mg/kg, route oral; settings: in vivo

| remaining at 0.5 h [1] | logD [2] | remaining at 1 h [4] | logD [5] | solubility [6] | solubility [8] | solubility [9] | remaining at 1 h [10] | solubility [12] | solubility [13] | remaining at 2 h [14] | Compound | UI [3] | Activity [7] | Activity [11] | also measured |
| --- | --- | --- | --- | --- | --- | --- | --- | --- | --- | --- | --- | --- | --- | --- | --- |
| 2.5% | 3.72 | 0% | 4.08 | BLD | BLD | BLD | 0% | BLD | BLD | 0% | CC(C)(C)C(=O)OCOC(=O)Cc1ccccc1Nc1c(Cl)cccc1Cl | 6 | 56.33% | 100% |  |
| 2.2% | 2.46 | 0% | 3.9 | BLD | BLD | BLD | 1.2% | BLD | BLD | 0% | CC(C)OC(=O)OCOC(=O)Cc1ccccc1Nc1c(Cl)cccc1Cl | 40 | 40.88% | 91.4% | Activity [15]: 5.71%; Activity [16]: 2.86% |
| 0% | 4.57 | 0% | 4.33 | BLD | BLD | BLD | 0% | BLD | BLD | 0% | CC(=O)OCCOC(=O)Cc1ccccc1Nc1c(Cl)cccc1Cl | 8 | 47.51% | 100% |  |
| 84.4% |  | 86.2% |  |  |  |  | 88.8% |  |  | 69.4% | O=C([O-])Cc1ccccc1Nc1c(Cl)cccc1Cl.[Na+] [DICLOFENAC SODIUM] |  |  |  | Activity [17]: 49.17%; UI [18]: 63; Activity [19]: 6%; Activity [20]: 14%; Activity [21]: 80% |
